This is an account of results in ChEMBL document CHEMBL1201862, “PubChem BioAssay data set” (2004).

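Tested at 5 concentrations; 48 h exposure; 96-well plates; endpoints linearly interpolated, else capped at highest concentration. At the GI50, growth is halved.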 The source made the active and inactive calls. Cut-off read from the data, not from the text of the source: active = GI50 up to about 1.1 µM and inactive = higher.

Test systems include HCT-116; SK-MEL-28; SF-268; CAKI-1; NCI-H226; HT-29; UACC-62; OVCAR-3; NCI-H522; MDA-MB-231; COLO 205; UACC-257; MOLT-4; K562; M14; UO-31; A498; DU-145; MCF7.
Holding throughout (experiment): DTP human tumour cell line panel, 48 h

For `CC(C)(C)OC(=O)N1CC(O)O[C@H](c2ccccc2)[C@@H]1c1ccccc1` (stereo not given in full), the GI50 is 44.6 µM (inactive) in the assay on HCT-116; 18.6 µM (inactive) in the assay on SK-MEL-28; 25.5 µM (inactive) with SF-268; 44.9 µM (inactive) in the assay on CAKI-1; 20.6 µM (inactive) in the assay with NCI-H226; 20.6 µM (inactive) with HT-29. Besides, the GI50 in the assay with UACC-62 is 14.3 µM (inactive); with OVCAR-3, 15.6 µM (inactive); in the assay on NCI-H522, 21.2 µM (inactive); in the assay on MDA-MB-231 it was 28.2 µM (inactive); with COLO 205, 31 µM (inactive); with UACC-257, 17.7 µM (inactive). Moreover, the GI50 with MOLT-4 was 30.4 µM (inactive); in the assay on K562, 33.4 µM (inactive); in the assay on M14 it was 16.4 µM (inactive); in the assay with UO-31, 17.6 µM (inactive); with A498, 21.4 µM (inactive); in the assay on DU-145, 25.5 µM (inactive).
For the molecule `CC(C)(C)OC(=O)N1N=CCC1c1ccccc1` (stereo not given), the GI50 in the assay on HCT-116, with MCF7, in the assay with SF-268, with CAKI-1, with NCI-H226 and in the assay with HT-29 was > 100 µM (inactive) each time. The GI50 in the assay on UACC-62, in the assay with OVCAR-3, with NCI-H522, with COLO 205, in the assay with UACC-257 and in the assay on K562 was > 100 µM (inactive) in each case. The GI50 in the assay on M14, with UO-31, in the assay on A498 and in the assay with DU-145 was > 100 µM (inactive) each time.
For `CC1NC(/C(=C/c2ccccc2O)NC(=O)c2ccccc2)OC1=O` (stereo not given), the GI50 with HCT-116 was > 50 µM (inactive); with MCF7, 1.47 µM (inactive); in the assay with SK-MEL-28, > 50 µM (inactive); with CAKI-1, > 50 µM (inactive); with NCI-H226 it was > 50 µM (inactive); with HT-29 it was > 50 µM (inactive). Besides, the GI50 with UACC-62 was > 50 µM (inactive); in the assay with OVCAR-3, > 50 µM (inactive); in the assay with NCI-H522, 24.2 µM (inactive); with MDA-MB-231, > 50 µM (inactive); in the assay on COLO 205 it was > 50 µM (inactive); in the assay on UACC-257 it was > 50 µM (inactive). The GI50 in the assay with MOLT-4, in the assay on K562, in the assay on M14, in the assay with UO-31 and with A498 was > 50 µM (inactive) in each case.
For the molecule `C=CCCC(=O)N1CCC(C(=O)OCC)C1=O` (stereo not given), the GI50 with HCT-116 was > 100 µM (inactive); in the assay with SK-MEL-28, > 100 µM (inactive); in the assay with SF-268, > 100 µM (inactive); in the assay with CAKI-1, > 100 µM (inactive); with NCI-H226 it was 90.8 µM (inactive); with UACC-62, > 100 µM (inactive). Further, the GI50 in the assay on NCI-H522, in the assay on MDA-MB-231, in the assay with COLO 205, with UACC-257, in the assay on MOLT-4 and in the assay on M14 was > 100 µM (inactive) in each case. For the same molecule, the GI50 in the assay with UO-31, in the assay with A498 and with DU-145 was > 100 µM (inactive) each time.
With `Cc1nc2sccn2c1C(=O)NNC(N)=S`, the GI50 in the assay with HCT-116, in the assay with SK-MEL-28, in the assay with SF-268, in the assay with CAKI-1, in the assay with NCI-H226 and in the assay on HT-29 was > 100 µM (inactive) each time. Further, the GI50 in the assay with UACC-62, in the assay with OVCAR-3, in the assay on NCI-H522, in the assay with COLO 205, with UACC-257 and in the assay on MOLT-4 was > 100 µM (inactive) each time. Moreover, in the assay with K562, the GI50 was > 100 µM (inactive).
Regarding `O=C1Nc2ccccc2/C1=C1/Nc2ccccc2/C1=N/OCCO`, the GI50 with HCT-116 is 0.481 µM (active); in the assay on MCF7 it was 1.86 µM (inactive); in the assay on SK-MEL-28, > 100 µM (inactive); in the assay on SF-268, > 100 µM (inactive); with CAKI-1, 0.175 µM (active); in the assay with NCI-H226, > 100 µM (inactive). Also, the GI50 is 2.44 µM (inactive) with HT-29; 10.5 µM (inactive) in the assay with UACC-62; 1.51 µM (inactive) in the assay on OVCAR-3; > 100 µM (inactive) in the assay with NCI-H522; 3.99 µM (inactive) in the assay on COLO 205; > 100 µM (inactive) in the assay with UACC-257. Besides, the GI50 was 0.8 µM (active) with MOLT-4; > 100 µM (inactive) in the assay with K562; 2.39 µM (inactive) with M14; 0.363 µM (active) with UO-31; 0.213 µM (active) in the assay on A498; 0.713 µM (active) in the assay with DU-145.
For `O=[N+]([O-])c1cccc2nc3ccccc3c(NCCCCNc3c4ccccc4nc4cccc([N+](=O)[O-])c34)c12`, the GI50 was 0.0143 µM (active) with HCT-116; 0.0216 µM (active) in the assay with MCF7; 0.164 µM (active) in the assay on SK-MEL-28; 0.0203 µM (active) in the assay with SF-268; 0.0261 µM (active) with CAKI-1; 0.144 µM (active) with NCI-H226. Also, the GI50 is < 0.01 µM (active) in the assay on HT-29; 0.134 µM (active) with UACC-62; 0.0395 µM (active) in the assay on OVCAR-3; 0.0214 µM (active) with NCI-H522; 0.0178 µM (active) in the assay on MDA-MB-231; 0.0199 µM (active) with COLO 205. Further, the GI50 in the assay on UACC-257 was 0.146 µM (active); with MOLT-4 it was < 0.0104 µM (active); in the assay with K562, < 0.0216 µM (active); in the assay on M14 it was 0.0389 µM (active); in the assay on UO-31, 0.129 µM (active); in the assay on DU-145, 0.0232 µM (active).
As to `Oc1nncc2[nH]c(-c3ccccc3)cc12`, the GI50 in the assay with HCT-116 is 57.7 µM (inactive); with MCF7 it was 24.4 µM (inactive); in the assay on SF-268, 39.4 µM (inactive); in the assay on CAKI-1 it was 45.8 µM (inactive); with NCI-H226, 86.1 µM (inactive); with HT-29, 36.4 µM (inactive). The GI50 was 33.9 µM (inactive) in the assay on UACC-62; 36.2 µM (inactive) in the assay with OVCAR-3; 34 µM (inactive) in the assay on MDA-MB-231; 43.1 µM (inactive) in the assay on COLO 205; 30.5 µM (inactive) with UACC-257; 17 µM (inactive) in the assay with MOLT-4. The GI50 in the assay on K562 was 44.1 µM (inactive); in the assay with M14 it was 51.8 µM (inactive); in the assay with UO-31, 67.1 µM (inactive); in the assay with DU-145, 79.8 µM (inactive).
Take `CN(C)c1nc2n(CCO)c(-c3ccccc3)c(-c3ccccc3)nc-2c(=O)n1`: the GI50 in the assay with HCT-116, in the assay with SK-MEL-28, with SF-268, with CAKI-1, with NCI-H226 and in the assay with HT-29 was > 100 µM (inactive) in each case. For the same molecule, the GI50 with UACC-62, in the assay with OVCAR-3, in the assay with NCI-H522, in the assay on MDA-MB-231, with COLO 205 and with UACC-257 was > 100 µM (inactive) throughout. The GI50 in the assay on MOLT-4, in the assay with K562, with M14, with UO-31, with A498 and in the assay with DU-145 was > 100 µM (inactive) in each case.
As for `CCCCCCCCCCCCOP(=O)(O)OP(=O)(O)OCC1OC(n2cc(C)c(=O)[nH]c2=O)CC1O` (stereo not given), the GI50 in the assay on HCT-116, in the assay with MCF7, with SK-MEL-28, in the assay on SF-268, with CAKI-1 and in the assay with NCI-H226 was > 100 µM (inactive) throughout. For the same molecule, the GI50 in the assay with HT-29, in the assay on OVCAR-3, in the assay on NCI-H522, in the assay on MDA-MB-231, with COLO 205 and in the assay on UACC-257 was > 100 µM (inactive) in each case. Also, the GI50 with MOLT-4, with K562, in the assay on M14, in the assay on UO-31 and in the assay with A498 was > 100 µM (inactive) throughout.
Consider `Nc1ncnc2c1nc(Cl)n2C1OC2COP(=O)(O)OC2C1O` (stereo not given), for which the GI50 was 3.09 µM (inactive) with HCT-116; 3.49 µM (inactive) in the assay with MCF7; > 87.9 µM (inactive) with SK-MEL-28; > 51.8 µM (inactive) with SF-268; 6.04 µM (inactive) in the assay with CAKI-1; 3.41 µM (inactive) with NCI-H226. In addition, the GI50 is 4.57 µM (inactive) in the assay on HT-29; 10.4 µM (inactive) in the assay on UACC-62; 12.2 µM (inactive) with OVCAR-3; 3.63 µM (inactive) in the assay with NCI-H522; 5.55 µM (inactive) in the assay on COLO 205; 18.9 µM (inactive) in the assay with UACC-257. Moreover, the GI50 with MOLT-4 was 2.81 µM (inactive); in the assay with K562, 1.01 µM (active); in the assay on M14, 6.25 µM (inactive); with UO-31 it was 5.87 µM (inactive); in the assay on A498 it was 1.69 µM (inactive); with DU-145, 6.67 µM (inactive).
With `COc1ccc(NC(=O)c2cc(OC)cc(OC)c2)cc1`, the GI50 was 8.41 µM (inactive) in the assay on HCT-116; 45.7 µM (inactive) in the assay with SK-MEL-28; 36.7 µM (inactive) with SF-268; 21.9 µM (inactive) in the assay on CAKI-1; 31.7 µM (inactive) in the assay with NCI-H226; 4.49 µM (inactive) with HT-29. Further, the GI50 in the assay on UACC-62 is 11.3 µM (inactive); with OVCAR-3 it was 12.1 µM (inactive); with NCI-H522 it was 13.6 µM (inactive); in the assay with COLO 205 it was 7.1 µM (inactive); with UACC-257, 98.4 µM (inactive); with MOLT-4, 14.8 µM (inactive). The GI50 in the assay on K562 is 4.74 µM (inactive); in the assay on M14, 47.3 µM (inactive); in the assay on UO-31 it was 44 µM (inactive); with A498, 35.4 µM (inactive).
